One experiment deals with p-BTK (C481S) (Homo sapiens (Human), UniProt Q06187, C481S). Kind of experiment: p-BTK cell experiment, HEK293 transfected with C481S-BTK plasmid (P-BTK Y223 sandwich ELISA). It counts as cell-based. The settings on record: HEK293 cells, compound cultured for two hours. How it is done: (§1) Day 1: HEK293 cells (ADDEXBIO, T0011001) at logarithmic growth phase were taken, digested with enzyme EDTA, collected and counted, and 2E6 cells were inoculated in a 10 cm culture dish and cultured overnight. Day 2: A mixed solution containing 6 μg of WT-BTK/C481S-BTK plasmid and 18 μL of FuGENE HD transfection reagent was prepared by using 1000 μL of Opti-MEM. After standing at room temperature for 10 minutes, the mixed solution was slowly added to the culture dish with a pipettor and cultured overnight. Day 3: The culture dish was taken out, and the cells were digested with enzyme EDTA, collected and counted, and 1E4 cells were inoculated in a 96-well cell culture plate and cultured overnight. A 3.16-fold gradient concentration stock solution of 1000× compound was prepared using DMSO, and placed at room temperature. Day 4: A prepared 1000× compound stock solution was taken, and diluted 200-fold to 5× compound stock solution with culture medium. 5× compound stock solution was added to each cell culture well with a final concentration of 1× compound stock solution and a DMSO content of 0.1%. DMSO was used as an experimental control. After the compound was added and cultured for two hours, the residual culture medium was removed. 100 μL of cell lysis buffer was added to each well, stood on ice for 30 minutes, and ultrasonically lysed with ice water for 5 minutes. After diluting the cell lysate in proportion, 80 μL of the mixture was transfer to an ELISA plate, and 80 μL of cell lysis buffer was added to the blank well. After incubating in an incubator at 37° C. for 2 hours, the plate was taken and the antibody incubation and color development termination operation were completed according to the instructions of Pathscan P-BTK (Y223) Sandwich ELISA Kit (Cell Signaling #23843 CA), and finally the OD value was read. The inhibition rate of the compound (%)=(ODcontrol−ODcompound)/(ODcontrol−ODblank)×100% was calculated. The compound gradient dilution concentration and the corresponding cell proliferation inhibition rate were fit by using Prism 8 four-parameter method, and IC50 value was calculated.
In general terms: In an ELISA, binding on a coated surface is turned into a signal by an enzyme label.

The next experiment has as its system TMD-8 cells. The experiment in a line: TMD-8 proliferation inhibition experiment. It counts as cell-based. The following applies: human diffuse large B lymphoma cells, three days incubation. A digest of the protocol:
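Log-phase cells seeded in 384-well plates (600 TMD-8 in RPMI 1640, 2000 OCI-LY10 in IMDM, both 10% FBS), then exposed one day later to 3-fold compound dilutions at 0.25% DMSO for three days. ADP-Glo luminescence read; inhibition versus DMSO and medium-only blank, IC50 by four-parameter fit.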

A further experiment addresses p-BTK (WT) (Homo sapiens (Human), UniProt Q06187). The experiment in a line: p-BTK cell experiment, HEK293 transfected with WT-BTK plasmid (P-BTK Y223 sandwich ELISA). The following applies: HEK293 cells, compound cultured for two hours. It counts as cell-based. How it is done: as §1
In another experiment the target is BTK (Homo sapiens (Human), UniProt Q06187). The experiment in a line: BTK enzyme experiment (ADP-Glo kinase assay). It counts as biochemical. The settings on record: 10 nM BTK, ATP 125 μM, Poly(Glu4, Tyr1), 90 minutes at 20° C.; read-out: BTK(WT) IC50. An outline of the steps:
(§2)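 Wild-type or C481S BTK, added as 2× solution at 10 nM, preincubated 10 min with 3-fold compound dilutions in 50 mM HEPES pH 7.5, 10 mM MgCl2, 2 mM DTT, 0.0015% Brij-35. ADP-Glo luminescence norm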
For orientation: ADP-Glo first removes unused ATP, then detects ADP through luciferase.

In a further experiment the target is BTK (C481S) (Homo sapiens (Human), UniProt Q06187, C481S). The experiment in a line: BTK C481S enzyme experiment (ADP-Glo kinase assay). It counts as biochemical. The settings on record: 10 nM BTK C481S, ATP 125 μM, Poly(Glu4, Tyr1), 90 minutes at 20° C. An outline of the steps: as §2

Among the data in US20240360154A1, “AROYL SUBSTITUTED TRICYCLIC COMPOUND, PREPARATION METHOD THEREFOR AND USE THEREOF” (GENFLEET THERAPEUTICS (SHANGHAI) INC., priority 2020, published 2024) are IC50 values, retold here.

pIC50: −log10 of the molar value.

Chain of p-BTK (WT) (Q06187 whole entry): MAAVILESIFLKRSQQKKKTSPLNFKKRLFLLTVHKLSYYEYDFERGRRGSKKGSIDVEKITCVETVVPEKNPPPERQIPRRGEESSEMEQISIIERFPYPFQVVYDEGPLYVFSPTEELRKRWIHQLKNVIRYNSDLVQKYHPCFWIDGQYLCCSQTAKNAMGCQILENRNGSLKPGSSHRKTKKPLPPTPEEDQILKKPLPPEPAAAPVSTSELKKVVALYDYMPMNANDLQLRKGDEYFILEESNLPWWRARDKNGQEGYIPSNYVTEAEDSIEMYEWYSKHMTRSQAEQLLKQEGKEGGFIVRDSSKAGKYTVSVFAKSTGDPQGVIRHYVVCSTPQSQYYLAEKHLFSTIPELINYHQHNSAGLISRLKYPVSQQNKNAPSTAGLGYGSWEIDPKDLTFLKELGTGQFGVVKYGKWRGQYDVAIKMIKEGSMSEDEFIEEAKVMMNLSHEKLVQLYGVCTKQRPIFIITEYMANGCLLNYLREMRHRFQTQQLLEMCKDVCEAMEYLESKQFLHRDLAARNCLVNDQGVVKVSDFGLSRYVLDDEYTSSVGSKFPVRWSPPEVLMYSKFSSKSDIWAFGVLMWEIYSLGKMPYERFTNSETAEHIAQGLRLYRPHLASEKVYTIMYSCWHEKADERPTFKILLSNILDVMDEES
Chain of BTK (Q06187 whole entry): as above
Chain of p-BTK (C481S) (Q06187 whole entry C481S): as the sequence (Q06187 whole entry) above, with C481S counted along it
Chain of BTK (C481S) (Q06187 whole entry C481S): as the sequence (Q06187 whole entry) above, with C481S counted along it

Take `CC1(CO)Nc2c(cnc3[nH]cc(C(=O)c4ccc(Oc5ccccc5)cc4Cl)c23)NC1=O` (stereo not drawn) [Z9, 9-(2-chloro-4-phenoxybenzoyl)-2-(hydroxymethyl)-2-methyl-1,2,4,7-tetrahydro-3H-pyrrolo[3′,2′:5,6]pyrido[3,4-b]pyrazin-3-one]: the negative logarithm of the IC50 (pIC50) – broadly, the negative decadic logarithm of the IC50, by convention in mol/L – was 7.24 against p-BTK (C481S); 6.63 with TMD-8 cells (Homo sapiens, TMD8, 72 h); 7.63 against p-BTK (WT); 7.64 at BTK; 7.84 on BTK (C481S).

As for `COC[C@]1(C)Nc2c(cnc3[nH]cc(C(=O)c4ccc(Oc5ccccc5)cc4Cl)c23)NC1=O` [Z13-1], the pIC50 is 7.37 at p-BTK (C481S); 7.42 with TMD-8 cells; 7.44 against p-BTK (WT); 7.94 at BTK; 8.01 on BTK (C481S).

With `O=C(c1ccc(Oc2ccccc2)cc1Cl)c1c[nH]c2ncc3c(c12)NC1(CCOCC1)C(=O)N3` [Z14], the pIC50 at p-BTK (C481S) is 7.56; with TMD-8 cells, 7.24; against p-BTK (WT), 7.50; at BTK it was 8.12; against BTK (C481S) it was 8.29.

With `COCC[C@]1(C)Nc2c(cnc3[nH]cc(C(=O)c4ccc(Oc5ccccc5)cc4Cl)c23)NC1=O` [Z78-2], the pIC50 against p-BTK (C481S) is 6.93; with TMD-8 cells, 6.60; at p-BTK (WT), 7.17; at BTK it was 7.99; at BTK (C481S), 7.76.

Turning to `COC[C@]1(C)Nc2c(cnc3[nH]cc(C(=O)c4ccc(Oc5nccc(C)c5F)cc4Cl)c23)NC1=O` [Z132, 9-(2-chloro-4-((3-fluoro-4-methylpyridin-2-yl)oxy)benzoyl)-2-(methoxymethyl)-2-methyl-4,7-dihydro-1H-pyrrolo[3′,2′:5,6]pyrido[3,4-b]pyrazin-3(2H)-one], the pIC50 against p-BTK (C481S) is 7.44; in the experiment with TMD-8 cells (Homo sapiens, TMD8, 72 h), 6.88; at p-BTK (WT), 7.78; at BTK it was 7.93; against BTK (C481S) it was 7.81.

On to `COC[C@]1(C)Nc2c(cnc3[nH]cc(C(=O)c4ccc(Oc5ccccn5)cc4Cl)c23)NC1=O` [Z136, (S)-9-(2-chloro-4-(pyridin-2-yloxy)benzoyl)-2-(methoxymethyl)-2-methyl-1,2,4,7-tetrahydro-3H-pyrrolo[3′,2′:5,6]pyrido[3,4-b]pyrazin-3-one], for which the pIC50 against p-BTK (C481S) is 6.94; in the experiment with TMD-8 cells (Homo sapiens, TMD8, 72 h), 6.75; at p-BTK (WT), 7.09; on BTK, 8.17; against BTK (C481S), 8.12.

For the compound `CN(C)C1CCC2(C1)Nc1c(cnc3[nH]cc(C(=O)c4ccc(Oc5ccccc5)cc4Cl)c13)NC2=O` (stereo not drawn) [Z137], the pIC50 is 7.31 at p-BTK (C481S); 6.86 in the experiment on TMD-8 cells; 7.30 at p-BTK (WT); 7.89 at BTK; 7.99 against BTK (C481S).

Turning to `O=C(c1ccc(Oc2ccccc2)cc1Cl)c1c[nH]c2ncc3c(c12)NC1(CCC(N2CCOCC2)C1)C(=O)N3` (stereo not drawn) [Z141, 9′-(2-chloro-4-phenoxybenzoyl)-3-morpholino-4′,7′-dihydrospiro[cyclopentane-1,2′-pyrrolo[3′,2′:5,6]pyrido[3,4-b]pyrazin]-3′(1′H)-one], the negative-log IC50 (pIC50) on p-BTK (C481S) is 7.65; with TMD-8 cells (Homo sapiens, TMD8, 72 h), 7.23; against p-BTK (WT), 7.69; at BTK, 7.94; against BTK (C481S) it was 8.29.

Regarding `[2H]C([2H])([2H])[C@@]1(COC)Nc2c(cnc3[nH]cc(C(=O)c4ccc(Oc5ccccc5)cc4Cl)c23)NC1=O` [Z149, (S)-9-(2-chloro-4-phenoxybenzoyl)-2-(methoxymethyl)-2-(methyl-d3)-1,2,4,7-tetrahydro-3H-pyrrolo[3′,2′:5,6]pyrido[3,4-b]pyrazin-3-one], the negative-log IC50 (pIC50) at p-BTK (C481S) is 7.48; in the experiment on TMD-8 cells (Homo sapiens, TMD8, 72 h), 6.89; at p-BTK (WT), 7.71; on BTK, 7.63; at BTK (C481S), 7.88.
